From patent US9624238B2, “4H-thieno[3,2-C]chromene-based inhibitors of Notum Pectinacetylesterase and methods of their use” (Lexicon Pharmaceuticals, Inc., priority 2011, dated 2017)

Key:
[1] = target: T1, human notum pectinacetyltransferase (Homo sapiens, UniProt Q6P988); assay: Binding assay (OPTS esterase substrate, fluorimetric); assay type: biochemical; conditions: class symbols
T1 construct: made in house; unpurified conditioned medium used
T1 sequence (Q6P988 20-496): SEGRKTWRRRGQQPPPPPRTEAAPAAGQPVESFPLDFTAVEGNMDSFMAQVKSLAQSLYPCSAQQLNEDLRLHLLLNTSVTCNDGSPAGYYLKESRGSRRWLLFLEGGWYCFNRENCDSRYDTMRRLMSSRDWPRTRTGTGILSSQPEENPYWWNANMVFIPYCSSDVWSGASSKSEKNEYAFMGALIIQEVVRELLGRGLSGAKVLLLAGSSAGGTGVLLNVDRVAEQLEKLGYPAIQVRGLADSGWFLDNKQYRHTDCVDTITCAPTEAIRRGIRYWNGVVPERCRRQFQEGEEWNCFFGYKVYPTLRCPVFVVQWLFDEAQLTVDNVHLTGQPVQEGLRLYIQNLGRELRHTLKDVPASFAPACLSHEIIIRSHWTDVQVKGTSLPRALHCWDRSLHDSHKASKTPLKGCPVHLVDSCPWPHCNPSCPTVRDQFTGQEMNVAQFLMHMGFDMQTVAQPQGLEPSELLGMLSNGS
Description: Plasmid containing human notum pectinacetyltransferase in pcDNA3.1(+) vector was transfected into HEK (293 cells and clones were selecting by growing in presence of 400 ug/mL of G418. Condition media from these cells was used for the assay.

[2] = target: T1, human notum pectinacetyltransferase; assay: Reporter assay (CellSensor LEF/TCF-bla FreeStyle 293F cells, Wnt3a and notum conditioned media); assay type: cell-based; conditions: class symbols
Description: Plasmid containing human notum pectinacetyltransferase in pcDNA3.1(+) vector was transfected into HEK (293 cells and clones were selecting by growing in presence of 400 ug/mL of G418. The clone containing highest expression of human notum pectinacetyltransferase in the conditioned media was maintained for all future activity assays. L cells overexpressing and secreting Wnt3a into the conditioned media were purchased from ATCC.
The assay protocol was as follows. […] The cell growth medium consisted of DMEM with 10% Dialyzed FBS, 5 μg/ml Blasticidin (Invitrogen, R210-01), 0.1 mM NEAA, 25 mM HEPES and 1×GPS. Cells were then trypsinized by first rinsing with PBS, followed by addition of 5 mL of trypsin and incubation of plates at room temperature for two minutes. A total of 10 mL of assay media (Opti-MEM, plus 0.5% dialyzed FBS, 0.1 mM NEAA, 1 mM sodium pyruvate, 10 mM HEPES, 1×GPS) was then added per 15 cm plate. Cells were counted and suspended at 0.75 million cells per mL. […] After incubation of cells at 37° C. for 3 hours, 10 μL of 30 mM LiCl in assay medium was added per well, followed by incubation at 37° C. for another 3 hours. […] Ten μL of the Wnt3a/notum pentinacetyltransferase mixture was then transferred from Greiner plates to each well of the 384-well plates containing the CellSensor cells.

| SMILES | IC50 [1] | EC50 [2] |
| --- | --- | --- |
| O=C(O)C1CN(C(=O)c2cc3c(s2)-c2ccc(Cl)c(F)c2OC3)CC1c1cccs1 (centres unmarked) | < 1000 nM | < 50 nM |
| COc1ccccc1C1CN(C(=O)c2cc3c(s2)-c2ccc(Cl)c(F)c2OC3)CC1C(=O)O (centres unmarked) | < 1000 nM | < 50 nM |
| N#CC1CCN(C(=O)c2cc3c(s2)-c2ccc(Cl)c(F)c2OC3)C1 (centres unmarked) | < 1000 nM | < 50 nM |
| CCC1Cc2cc(C(N)=O)sc2-c2c(F)ccc(F)c21 (centres unmarked) | < 50 nM | < 50 nM |
| CCC1Cc2cc(C(=O)O)sc2-c2c(F)ccc(F)c21 (centres unmarked) | < 1000 nM | < 50 nM |
| Cc1ccc2c(c1F)OCc1cc(C(=O)O)sc1-2 | < 1000 nM | < 50 nM |
| NC(=O)c1cc2c(s1)-c1ccc(Cl)c(Cl)c1OC2 | < 100 nM | < 50 nM |
| NC(=O)c1cc2c(s1)-c1cc(F)cc(F)c1OC2 | < 50 nM | < 50 nM |
| CC1(C)Oc2c(F)cc(F)cc2-c2sc(C(N)=O)cc21 | < 1000 nM | < 500 nM |
| Cc1cc(C)c2c(c1)-c1sc(C(N)=O)cc1CO2 | < 2000 nM | < 50 nM |
| Cc1cc(C)c2c(c1)-c1sc(C(=O)O)cc1CO2 | < 1000 nM | < 50 nM |
| CC1(C)Cc2cc(C(=O)O)sc2-c2c(F)ccc(F)c21 | < 1000 nM | < 50 nM |
| O=C(O)c1cc2c(s1)-c1ccc(Cl)c(F)c1OC2 | < 100 nM | < 50 nM |
| O=C(O)c1cc2c(s1)-c1ccc(F)cc1SC2 | < 1000 nM | < 50 nM |
| Cc1cc2c(cc1C)-c1sc(C(=O)O)cc1CO2 | < 1000 nM | < 50 nM |
| Cc1cc(C)c2c(c1)OCc1cc(C(N)=O)sc1-2 | < 2000 nM | < 50 nM |
| Cc1cc2c(cc1Cl)-c1sc(C(=O)O)cc1CO2 | < 1000 nM | < 50 nM |
| CC1Oc2ccc(F)cc2-c2sc(C(N)=O)cc21 (centres unmarked) | < 100 nM | < 50 nM |
| NC(=O)c1cc2c(s1)-c1cc(F)ccc1OC2 | < 50 nM | < 50 nM |
| CC1Cc2cc(C(N)=O)sc2-c2cc(F)ccc21 (centres unmarked) | < 50 nM | < 50 nM |
| Cc1cc(F)cc2c1OCc1cc(C(=O)O)sc1-2 | < 100 nM | < 50 nM |
| Cc1cc2c(cc1F)-c1sc(C(=O)O)cc1CO2 | < 100 nM | < 50 nM |
| O=C(O)c1cc2c(s1)-c1cc([N+](=O)[O-])ccc1OC2 | < 1000 nM | < 50 nM |
| CCOC(=O)c1cc2c(s1)-c1cc(C)cc(F)c1CC2 | < 1000 nM | < 50 nM |
| CCOC(=O)c1cc2c(s1)-c1cc(C)cc(C)c1CC2 | < 2000 nM | < 100 nM |
| COC(=O)C1CN(C(=O)c2cc3c(s2)-c2ccc(Cl)c(F)c2OC3)CC1c1ccccc1F (centres unmarked) | < 100 nM | < 50 nM |

Now from value to compound:

| IC50 [1] | EC50 [2] | SMILES |
| --- | --- | --- |
| < 100 nM | < 50 nM | O=C(O)CNC(=O)c1cc2c(s1)-c1ccccc1CC2 |
| < 50 nM | < 50 nM | O=C(O)c1cc2c(s1)-c1ccccc1OCC2 |
| < 2000 nM | < 100 nM | CC(=O)N1Cc2cc(C(=O)O)sc2-c2ccccc21 |
| < 1000 nM | < 50 nM | CC1Cc2cc(C(=O)O)sc2-c2ccccc21 (centres unmarked) |
| < 1000 nM | < 1000 nM | O=C(O)c1cc2c(s1)-c1ccccc1CCC2 |
| < 1000 nM | < 50 nM | NC(=O)c1cc2c(s1)-c1cccc(Cl)c1OC2 |
| < 50 nM | < 50 nM | Cc1ccc2c(c1Cl)CCc1cc(C(N)=O)sc1-2 |
| < 100 nM | < 50 nM | Cc1ccc2c(c1Cl)CCc1cc(C(=O)O)sc1-2 |
| < 1000 nM | < 50 nM | N#Cc1cccc2c1CCc1cc(C(N)=O)sc1-2 |
| < 50 nM | < 50 nM | NC(=O)c1cc2c(s1)-c1cccc(F)c1OC2 |
| < 50 nM | < 50 nM | Cc1ccc2c(c1F)CCc1cc(C(N)=O)sc1-2 |
| < 100 nM | < 50 nM | Cc1ccc2c(c1F)CCc1cc(C(=O)O)sc1-2 |
| < 50 nM | < 50 nM | Cc1cc(F)c2c(c1)-c1sc(C(N)=O)cc1CC2 |
| < 1000 nM | < 50 nM | Cc1cccc2c1OCc1cc(C(N)=O)sc1-2 |
| < 50 nM | < 50 nM | O=C(NCc1ccccn1)c1cc2c(s1)-c1ccc(F)c(F)c1CC2 |
| < 50 nM | < 50 nM | Cc1cc(C)c2c(c1)-c1sc(C(=O)O)cc1CC2 |
| < 1000 nM | < 50 nM | O=C(O)c1cc2c(s1)-c1ccc(C(F)(F)F)cc1OC2 |
| < 1000 nM | < 50 nM | O=C(O)c1cc2c(s1)-c1ccc(Br)cc1CC2 |
| < 50 nM | < 50 nM | Cc1ccc2c(c1[N+](=O)[O-])CCc1cc(C(=O)O)sc1-2 |

| IC50 [1] | EC50 [2] | SMILES |
| --- | --- | --- |
| < 1000 nM | < 50 nM | NC(=O)c1cc2c(s1)-c1cc(Cl)c(Cl)cc1CC2 |
| < 100 nM | < 50 nM | O=C(O)c1cc2c(s1)-c1cc(Cl)c(Cl)cc1CC2 |
| < 100 nM | < 100 nM | O=C(O)c1cc2c(s1)-c1cc(Cl)ccc1OCC2 |
| < 50 nM | < 50 nM | NC(=O)c1cc2c(s1)-c1cc(F)ccc1CCC2 |
| < 1000 nM | < 1000 nM | O=C(O)c1cc2c(s1)-c1cc(F)ccc1CCC2 |
| < 1000 nM | < 1000 nM | O=C(NCCN1CCCCC1)c1cc2c(s1)-c1ccccc1CC2 |
| < 1000 nM | < 500 nM | CC(C)(C#N)NC(=O)c1cc2c(s1)-c1ccccc1CC2 |
| < 100 nM | < 100 nM | O=C(NCCO)c1cc2c(s1)-c1ccccc1CCC2 |
| < 50 nM | < 50 nM | N#CCNC(=O)c1cc2c(s1)-c1ccccc1CC2 |
| < 50 nM | < 50 nM | O=C(NO)c1cc2c(s1)-c1ccccc1CC2 |
| < 100 nM | < 50 nM | CNC(=O)c1cc2c(s1)-c1ccccc1CC2 |
| < 100 nM | < 500 nM | CCCNC(=O)c1cc2c(s1)-c1ccccc1CC2 |
| < 2000 nM | < 50 nM | CCOC(=O)c1cc2c(s1)-c1ccccc1CC2 |
| < 1000 nM | < 50 nM | CCOC(=O)c1cc2c(s1)-c1ccc(C)c(Cl)c1CC2 |
| < 100 nM | < 50 nM | CCOC(=O)c1cc2c(s1)-c1ccc(C)c([N+](=O)[O-])c1CC2 |
| < 1000 nM | < 50 nM | COC(=O)C1CN(C(=O)c2cc3c(s2)-c2cc(C)cc(F)c2CC3)CC1c1ccccc1 (centres unmarked) |
| < 1000 nM | < 50 nM | COC(=O)CNC(=O)c1cc2c(s1)-c1ccccc1CC2 |
| < 2000 nM | < 100 nM | COC(=O)CNC(=O)c1cc2c(s1)-c1cc(C)cc(C)c1CC2 |
| < 2000 nM | < 50 nM | CC(C)(C)OC(=O)NCCNC(=O)c1cc2c(s1)-c1ccccc1CC2 |
